According to patent publication US20150291565A1, “INDOLE COMPOUNDS AND THEIR USE AS ANTIMICROBIALS” (Memorial Sloan-Kettering Cancer Center, priority 2012, published 2015):
Values after ≈ are worked out from the molar mass of the structure shown. Values joined by “and” are separate entries in the source; they are usually repeats but may differ in a detail not shown here. Identical values can stand only once. Like-named read-outs stand apart in the source and are kept apart here.

What was measured:
[1] = system: E. faecium ATCC 700221 (VRE); assay: Broth dilution MIC, E. faecium ATCC 700221; assay type: cell-based
M. smegmatis (mc2155) = assay: Disk diffusion assay, zone of inhibition, M. smegmatis; assay type: cell-based
S. aureus BAA-39 (MDR) = assay: Broth dilution MIC, S. aureus BAA-39; assay type: cell-based; details: for MIC: Staphylococcus aureus, BAA39
[2] = system: S. pneumoniae ATCC 700674 (PRSP); assay: Broth dilution MIC, S. pneumoniae ATCC 700674; assay type: cell-based; details: Streptococcus pneumoniae
MRSA = assay: Disk diffusion assay, zone of inhibition, MRSA; assay type: cell-based, Staphylococcus aureus
[3] = system: methicillin-resistant S. aureus (ATCC 33591); assay: Thigh infection model in neutropenic CD1 mice, MRSA; details: 24 hours; for Log reduction: vs vehicle
[4] = system: S. aureus ATCC 29213 (MSSA); assay: Broth dilution MIC, S. aureus ATCC 29213; assay type: cell-based; details: Staphylococcus aureus
P. aeruginosa ATCC 9027 = assay: Broth dilution MIC, P. aeruginosa ATCC 9027; assay type: cell-based; details: Pseudomonas aeruginosa
E. coli ATCC 25922 = assay: Broth dilution MIC, E. coli ATCC 25922; assay type: cell-based; details: Escherichia coli
[5] = system: S. pneumoniae ATCC 6301 (PSSP); assay: Broth dilution MIC, S. pneumoniae ATCC 6301; assay type: cell-based; details: Streptococcus pneumoniae
[6] = disk diffusion zone of inhibition

## c1cc(C2=NCCN2)ccc1Nc1ccc(-c2cc3ccc(C4=NCCN4)cc3[nH]2)cc1 [SKI-1]
[1]; Enterococcus faecium, Table 1, range 64 down to 0.12 μg/ml, read-out: MIC E. faecium ATCC 700221
  MIC: ≤ 0.12 µg/mL
[1]; Enterococcus faecium, Table 3, starting at 4 μg/ml, read-out: MIC E. faecium ATCC 700221
  MIC: 0.06 µg/mL (≈ 0.143 µM)
[1]; Enterococcus faecium, Table 4, broth dilution MIC according to CLSI standards (NAEJA), read-out: MIC VRE E. faecium ATCC 700221
  MIC: 0.03 µg/mL (≈ 0.0713 µM)
[1]; Table 2, broth dilution MIC in ug/ml, read-out: MIC E faecium ATCC 700221 VRE
  MIC: 0.06 µg/mL (≈ 0.143 µM)
M. smegmatis (mc2155); [6]
  Zone Size M. smegmatis: 19.6 mm
M. smegmatis (mc2155); n = 3
  Average Zone Size MC2155 (n = 3): 12.3
S. aureus BAA-39 (MDR); Table 1, range 64 down to 0.12 μg/ml, read-out: MIC S. aureus BAA-39
  MIC: 0.25 µg/mL (≈ 0.595 µM)
S. aureus BAA-39 (MDR); Table 2, broth dilution MIC in ug/ml, read-out: MIC S aureus BAA-39 MDR
  MIC: 0.25 µg/mL (≈ 0.595 µM)
S. aureus BAA-39 (MDR); Table 4, broth dilution MIC according to CLSI standards (NAEJA), read-out: MIC MDR S. aureus BAA-39
  MIC: 0.25 µg/mL (≈ 0.595 µM)
S. aureus BAA-39 (MDR); Table 3, starting at 4 μg/ml
  MIC S. aureus BAA-39: 0.25 µg/mL (≈ 0.595 µM)
[2]; Table 1, range 64 down to 0.12 μg/ml, read-out: MIC S. pneumoniae ATCC 700674
  MIC: ≤ 0.12 µg/mL
[2]; Table 2, broth dilution MIC in ug/ml, read-out: MIC S pneumonia ATCC 700674 PRSP
  MIC: 0.12 µg/mL (≈ 0.285 µM)
[2]; Table 3, starting at 4 μg/ml, read-out: MIC S. pneumoniae ATCC 700674
  MIC: 0.12 µg/mL (≈ 0.285 µM)
[2]; Table 4, broth dilution MIC according to CLSI standards (NAEJA), read-out: MIC PRSP S. pneumoniae ATCC 700674
  MIC: 0.03 µg/mL (≈ 0.0713 µM)
MRSA
  Average Zone Size MRSA: 11
MRSA; [6]
  Zone Size MRSA: 11 mm
[3]; 10 mg/kg BID IP
  Mean bacterial tissue burden (log10/thigh): 8.3106 log10/thigh
[3]; 10 mg/kg BID IP, listed as 356313, 10 mg/kg
  Log reduction: 0.14 Log and 0.1382 Log
[3]; 20 mg/kg BID IP
  Mean bacterial tissue burden (log10/thigh): 7.7428 log10/thigh
[3]; 20 mg/kg BID IP, listed as 356313, 20 mg/kg
  Log reduction: 0.71 Log and 0.7060 Log
[4]; Table 3, starting at 4 μg/ml, read-out: MIC S. aureus ATCC 29213
  MIC: 0.25 µg/mL (≈ 0.595 µM)
[4]; Table 1, range 64 down to 0.12 μg/ml, read-out: MIC S. aureus ATCC 29213
  MIC: 0.25 µg/mL (≈ 0.595 µM)
[4]; Table 2, broth dilution MIC in ug/ml, read-out: MIC S aureus ATCC 29213 MSSA
  MIC: 0.25 µg/mL (≈ 0.595 µM)
[4]; Table 4, broth dilution MIC according to CLSI standards (NAEJA), read-out: MIC MSSA S. aureus ATCC 29213
  MIC: 0.25 µg/mL (≈ 0.595 µM)
P. aeruginosa ATCC 9027; ATCC 9026 / ATCC 9027, Table 2, broth dilution MIC in ug/ml, read-out: MIC P aeruginosa ATCC 9026
  MIC: 1 µg/mL (≈ 2.38 µM)
P. aeruginosa ATCC 9027; ATCC9027, Table 1, range 64 down to 0.12 μg/ml, read-out: MIC P. aeruginosa ATCC 9027
  MIC: 1 µg/mL (≈ 2.38 µM)
P. aeruginosa ATCC 9027; ATCC9027, Table 4, broth dilution MIC according to CLSI standards (NAEJA), read-out: MIC P. aeruginosa ATCC 9027
  MIC: 0.5 µg/mL (≈ 1.19 µM)
E. coli ATCC 25922; ATCC 25921 / ATCC 25922, Table 2, broth dilution MIC in ug/ml, read-out: MIC E. coli ATCC 25921
  MIC: 1 µg/mL (≈ 2.38 µM)
E. coli ATCC 25922; ATCC25922, Table 1, range 64 down to 0.12 μg/ml, read-out: MIC E. coli ATCC 25922
  MIC: 1 µg/mL (≈ 2.38 µM)
E. coli ATCC 25922; ATCC25922, Table 4, broth dilution MIC according to CLSI standards (NAEJA), read-out: MIC E. coli ATCC 25922
  MIC: 0.5 µg/mL (≈ 1.19 µM)
[5]; ATCC6301, Table 1, range 64 down to 0.12 μg/ml, read-out: MIC S. pneumoniae ATCC 6301
  MIC: ≤ 0.12 µg/mL
[5]; ATCC6301, Table 2, broth dilution MIC in ug/ml, read-out: MIC S pneumonia ATCC 6301 PSSP
  MIC: 0.12 µg/mL (≈ 0.285 µM)
[5]; ATCC6301, Table 3, starting at 4 μg/ml, read-out: MIC S. pneumoniae ATCC 6301
  MIC: 0.12 µg/mL (≈ 0.285 µM)
[5]; ATCC6301, Table 4, broth dilution MIC according to CLSI standards (NAEJA), read-out: MIC PSSP S. pneumoniae ATCC 6301
  MIC: 0.12 µg/mL (≈ 0.285 µM)
